Values of other authors in US20040214804A1, “Combination of an aldosterone receptor antagonist and an anti-obesity agent” (Pharmacia Corporation, priority 2003, published 2004).

Assays:
[1] = tested on: dietary-induced obesity in dogs; details: during development of dietary-induced obesity
[2] = tested on: severe heart failure patients; details: left ventricular ejection fraction no more than 35%, on standard therapy (ACE inhibitor, loop diuretic, in some cases digoxin)

Row | Compound | glomerular hyperfiltration associated with chronic dietary-induced obesity [1] | hypertension associated with chronic dietary-induced obesity [1] | sodium retention associated with chronic dietary-induced obesity [1] | incidence of hospitalization relative to placebo-treated subjects [2] | mortality relative to placebo-treated subjects [2]
1 | COC(=O)[C@@H]1CC2=CC(=O)CC[C@]2(C)[C@@]23O[C@@H]2C[C@@]2(C)[C@@H](CC[C@@]24CCC(=O)O4)[C@H]13 [Eplerenone, Pregn-4-ene-7,21-dicarboxylic acid, 9,11-epoxy-17-hydroxy-3-oxo-,γ-lactone, methyl ester, (7α,11α,17β)-] | markedly attenuated | markedly attenuated | markedly attenuated |  | 
2 | CC(=O)S[C@@H]1CC2=CC(=O)CCC2(C)C2CC[C@]3(C)[C@@H](CC[C@@]34CCC(=O)O4)C21 (stereo partly drawn) [spironolactone, 17-hydroxy-7α-mercapto-3-oxo-17α-pregn-4-ene-21-carboxylic acid γ-lactone acetate] |  |  |  | statistically significant reduction | statistically significant reduction
